# Assay results from patent US20110269716A1, “ANTIOXIDANT COMPOUNDS AND METHODS OF THEIR USE” (priority 2008, published 2011).
# Assays:
# [1] = Log P by shake flask method (octanol/water, UV/vis at 230 nm); assay type: physicochemical
# Procedure: The solubility and permeability of CTMIO and DCTEIO (Compound 1) were assessed using the shake flask method and UV/vis spectroscopy to measure distribution of the solute as follows:
# A sample of octanol containing DCTEIO (3.34 mg, 1 mM) was added to a separating funnel with 10 mL water. The separating funnel was shaken for 5 minutes and the mixture was allowed to separate for 16 hours. Each phase (0.5 mL) was diluted with 5 mL of like solvent, water phase diluted with water and n-octanol phase diluted with n-octanol. This protocol was repeated for CTMIO. The absorbance of each sample was measured by UV/vis spectroscopy at 230 nm. The Log P value was calculated by the following equation: […]
# A-T cell line KT = assay: A-T cell survival assay (irradiated cells, Trypan blue count); assay type: cell-based, human; conditions: 100 μM nitroxide, at least six hours before irradiation at 4 Gy, counted every 24 hours for 4 days
# Procedure: Lymphoblastoid Cell Lines (LCL) of A-T cells and standard cells were used, which were incubated and cultured in the standard conditions. The cell lines of both A-T cells and standard cells were initially divided into four batches, the first batch was not irradiated and not exposed to nitroxide, second batch was irradiated in the absence of nitroxide, the third batch was not irradiated but was exposed to the nitroxide, and the last batch was irradiated in the presence of the nitroxide. All four aliquots were taken from the cultured medium and counted to ensure consistent numbers of cells were present in each aliquot used in the assay. In some experiments comparative experiments were performed with the known nitroxide antioxidant CTMIO. Cells that were treated by the nitroxide studied were exposed for at least six hours prior to the irradiation at the lethal dose of 4 Gy. After dilution, the final concentrations of the nitroxides were made to be 100 μM. Previous experiments have shown that nitroxides generally have minimal toxicity at the concentration of 100 μM, but to confirm this, cell growth was monitored in the presence of the nitroxides but without exposure to irradiation. From this it was evident that there was no significant cytotoxicity with any of the compounds studied.
# The concentrations of the cell cultures were monitored every 24 hours after irradiation, for four days. This was conducted via a Trypan blue based assay using a bright-line hemacytometer and an optical microscope. Trypan blue solution enables the discrimination of live cells from dead cells, as the dye is completely absorbed by dead cells, but not by live cells. Under a bright-line hemacytometer, a glass slide specially designed to determine cell concentrations, the blue dead cells fade into the background, enabling the selective count of live cells under an optical microscope. […]
# Cell survivability was determined by the ratio of cells irradiated to the cells without irradiation. […] Errors were calculated with 95% confidence intervals. […]
# PC-3 cells = assay: Biostability: EPR of conditioned media after exposure to cells; assay type: in vitro ADME; conditions: after 96 hours of exposure to PC-3 cells vs media without cells
# Procedure: PC-3 cells were seeded in tissue culture flasks (surface area ˜80 cm2). The cells were allowed to attach overnight. Following this, the cells were then treated with the desired concentration of CTMIO or DCTEIO (Compound 1) or vehicle (DMSO alone) i.e. 12 mL of media containing different nitroxide or vehicle was added to each flask. 5 mL of conditioned media (i.e. treatment media that had been incubated with the cells) were removed at 24 h and 96 h. At the 96 h time point, cells in the tissue culture flask were ˜100% confluent (i.e. the surface of the flask was covered by a monolayer of cells). The conditioned media that was removed from the flasks was placed in a falcon and centrifuged at 4° C. to remove any cellular debris that might have been present. The supernatant was then transferred to a new tube and the lid parafilmed to make it as airtight as possible. The tubes of conditioned media were stored at −20° C. until Electron Paramagnetic Resonance (EPR) analysis. […] The samples were run at X-band on a Bruker ELEXSYS E 580 FT/CW X-Band spectrometer at room temperature.
# [2] = system: cells affected with Ataxia Telangiectasia (A-T); conditions: Hosokawa et al. 2004; cited from earlier work
Compound,"logP ([1]; n-octanol/water, shake flask, 1 mM)",survival of KT cells in the presence of irradiation (A-T cell line KT),EPR signal strength of the nitroxide (metabolic conversion to the non-radical hydroxylamine) (PC-3 cells),Log P [1],protective effect on radiation-induced oxidative stress [2]
"CCC1(CC)c2cc(C(=O)O)c(C(=O)O)cc2C(CC)(CC)N1[O] [Compound (1), 1,1,3,3-Tetraethyl-5,6-dicarboxylisondoline-2-yloxyl]",0.57,improves survival of KT cells,same signal strength,–,–
"CCC1(CC)c2cc(CO)c(CO)cc2C(CC)(CC)N1[O] [Compound (2), 5,6-Dihydroxymethyl-1,1,3,3-tetraethylisoindolin-2-yloxyl]",–,improves survival of KT cells,–,–,–
"CC1(C)c2ccc(C(=O)O)cc2C(C)(C)N1[O] [CTMIO, 5-carboxy-1,1,3,3-tetramethyl-isoindolin-2-yloxyl, reference compound]",–,–,significant reduction in signal strength,−0.47,protective effect
"CCC1(CC)c2cc(CP(=O)(O)O)c(CP(=O)(O)O)cc2C(CC)(CC)N1[O] [Compound (3), 5,6-Bis(methylene)diphosphonic acid-1,1,3,3-tetraethylisoindolin-2-yloxyl]",–,improves survival of KT cells,–,–,–
